Test results: US10556888B2, “Pyrazole compounds or salts thereof, preparation methods therefor, herbicidal compositions and use thereof” (QINGDAO KINGAGROOT CHEMICAL COMPOUNDS CO., LTD, priority 2015, dated 2020)

How the values were obtained:
Type in all cases: in vivo
[1] = tested on: main crop (wheat, corn, rice, soybean, cotton, oilseed, millet and sorghum); test: Post-emergence test experiment, main crops (Table 2); design: key: Level 10: completely dead; Level 9: above 90% growth inhibition rate; Level 8: above 80% growth inhibition rate; Level 7: above 70% growth inhibition rate; Level 6: above 60% growth inhibition rate; Level 5: above 50% growth inhibition rate; Level 4: above 30% growth inhibition rate; Level 3: above 20% growth inhibition rate; Level 2: above 10% growth inhibition rate; Level 1: above 1-10% growth inhibition rate; Level 0: no effect; conditions: 3 weeks after spraying, greenhouse
In short: (§1)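 Weed and crop seeds (wheat, corn, rice, soybean, cotton, oilseed, millet, sorghum) grown in soil in greenhouse; sprayed at 2-3 leaf stage, 2-3 weeks after sowing, with compound in acetone/Tween 80/water. Effects assessed after 3 weeks further greenhouse culture.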

[2] = tested on: Monocotyledonous and dicotyledonous weed; test: Post-emergence test experiment, weed control effect (Table 2); design: key to weed control effect, Setaria viridis (level) / weed control effect, Rorippa indica (level) / weed control effect, Abutilon theophrasti (level) / weed control effect, Echinochloa crus-galli (level) / weed control effect, Digitaria sanguinalis (level): Level 10: completely dead; Level 9: above 90% growth inhibition rate; Level 8: above 80% growth inhibition rate; Level 7: above 70% growth inhibition rate; Level 6: above 60% growth inhibition rate; Level 5: above 50% growth inhibition rate; Level 4: above 30% growth inhibition rate; Level 3: above 20% growth inhibition rate; Level 2: above 10% growth inhibition rate; Level 1: above 1-10% growth inhibition rate; Level 0: no effect; conditions: 3 weeks after spraying, greenhouse
In short: as §1

[3] = tested on: Rice; test: Transplanted rice safety evaluation; design: key: Level 10: completely dead; Level 9: above 90% growth inhibition rate; Level 8: above 80% growth inhibition rate; Level 7: above 70% growth inhibition rate; Level 6: above 60% growth inhibition rate; Level 5: above 50% growth inhibition rate; Level 4: above 30% growth inhibition rate; Level 3: above 20% growth inhibition rate; Level 2: above 10% growth inhibition rate; Level 1: above 1-10% growth inhibition rate; Level 0: no effect; conditions: transplanted 3 leaf stage japonica rice, application rate 60 g/ha, 21 days after treatment
Experimental: In addition, the rice field soil that loaded into the 1/1,000,000 ha pot was leveled to keep water storage at 3-4 cm depth. The 3 leaf stage rice (japonica rice) was transplanted at 3 cm of transplanting depth the next day. The compound of the present invention was treated by the same way after 5 days of transplantation. The fertility condition of Echinochloa, Scirpus juncoides, Bidens tripartite and Sagittaria trifolia 14 days after the treatment of the compound of the invention and the fertility condition of rice 21 days after the treatment of the compound of the invention respectively with the naked eye.

[4] = tested on: Echinochloa crus-galli; test: Weed control effect evaluation in transplanted rice field; design: key: Level 10: completely dead; Level 9: above 90% growth inhibition rate; Level 8: above 80% growth inhibition rate; Level 7: above 70% growth inhibition rate; Level 6: above 60% growth inhibition rate; Level 5: above 50% growth inhibition rate; Level 4: above 30% growth inhibition rate; Level 3: above 20% growth inhibition rate; Level 2: above 10% growth inhibition rate; Level 1: above 1-10% growth inhibition rate; Level 0: no effect; conditions: transplanted rice field pot test, application rate 60 g/ha, 14 days after treatment
Experimental: (§2) Rice field soil was loaded into a 1/1,000,000 ha pot. The seeds of Echinochloa, Scirpus juncoides, Bidens tripartite and Sagittaria trifolia were sowed and gently covered with soil, then left to stand still in greenhouse in the state of 0.5-1 cm of water storage. The tuber of Sagittaria trifolia was planted in the next day or 2 days later. It was kept at 3-4 cm of water storage thereafter. The weeds were treated by dripping the WP or SC water diluents prepared according to the common preparation method of the compounds of the present invention with pipette homogeneously to achieve specified effective amount when Echinochloa, Scirpus juncoides and Bidens tripartite reached 0.5 leaf stage and Sagittaria trifolia reached the time point of primary leaf stage.
(§3) The fertility condition of Echinochloa, Scirpus juncoides, Bidens tripartite and Sagittaria trifolia 14 days after the treatment of the compound of the invention and the fertility condition of rice 21 days after the treatment of the compound of the invention respectively with the naked eye.
(§4) The seeds of Echinochloa crus-galli, Scirpus juncoides and Monochoria vaginalis were collected from Heilongjing and Jiangsu Province of China.

[5] = tested on: Scirpus juncoides; test: as above; design: key: Level 10: completely dead; Level 9: above 90% growth inhibition rate; Level 8: above 80% growth inhibition rate; Level 7: above 70% growth inhibition rate; Level 6: above 60% growth inhibition rate; Level 5: above 50% growth inhibition rate; Level 4: above 30% growth inhibition rate; Level 3: above 20% growth inhibition rate; Level 2: above 10% growth inhibition rate; Level 1: above 1-10% growth inhibition rate; Level 0: no effect; conditions: transplanted rice field pot test, application rate 60 g/ha, 14 days after treatment
Experimental: as §2, §3, §4

[6] = tested on: Monochoria vaginalis; test: as above; design: key: Level 10: completely dead; Level 9: above 90% growth inhibition rate; Level 8: above 80% growth inhibition rate; Level 7: above 70% growth inhibition rate; Level 6: above 60% growth inhibition rate; Level 5: above 50% growth inhibition rate; Level 4: above 30% growth inhibition rate; Level 3: above 20% growth inhibition rate; Level 2: above 10% growth inhibition rate; Level 1: above 1-10% growth inhibition rate; Level 0: no effect; conditions: transplanted rice field pot test, application rate 60 g/ha, 14 days after treatment
Experimental: as §2, §3, §4

Compound	effect on crop, corn (level) ([1]; 30 g/ha)	effect on crop, rice (level) ([1]; 30 g/ha)	effect on crop, wheat (level) ([1]; 30 g/ha)	weed control effect, Abutilon theophrasti (level) ([2]; 30 g/ha)	weed control effect, Bidens pilosa (level) ([2]; 30 g/ha)	weed control effect, Digitaria sanguinalis (level) ([2]; 30 g/ha)	weed control effect, Echinochloa crus-galli (level) ([2]; 30 g/ha)	weed control effect, Rorippa indica (level) ([2]; 30 g/ha)	weed control effect, Setaria viridis (level) ([2]; 30 g/ha)	Rice (safety, activity level) [3]	Weed control effect, Echinochloa crus-galli (activity level) [4]	Weed control effect, Scirpus juncoides (activity level) [5]	Weed control effect, Monochoria vaginalis (activity level) [6]	other results
COCc1c(S(C)(=O)=O)ccc(C(=O)c2c(C3CC3)nn(C)c2OC(=O)c2cn(C)nc2C)c1Cl [Compound 51]	4 (Level 4: above 30% growth inhibition rate)	3 (Level 3: above 20% growth inhibition rate)	0	7 (Level 7: above 70% growth inhibition rate)	7 (Level 7: above 70% growth inhibition rate)	10	10	10	10	0	10	9 (Level 9: above 90% growth inhibition rate)	10	–
CCOCCOCc1c(S(C)(=O)=O)ccc(C(=O)c2cnn(C)c2OC(=O)c2cnn(C)c2)c1Cl [Compound 68]	0	3 (Level 3: above 20% growth inhibition rate)	0	7 (Level 7: above 70% growth inhibition rate)	7 (Level 7: above 70% growth inhibition rate)	7 (Level 7: above 70% growth inhibition rate)	10	10	9 (Level 9: above 90% growth inhibition rate)	1 (Level 1: above 1-10% growth inhibition rate)	7 (Level 7: above 70% growth inhibition rate)	10	10	–
CCOc1c(C(=O)Oc2c(C(=O)c3ccc(S(C)(=O)=O)c(Cn4ccc(C)n4)c3Cl)cnn2C)cnn1C [Compound 24]	–	–	–	–	–	–	–	–	–	1 (Level 1: above 1-10% growth inhibition rate)	10	10	9 (Level 9: above 90% growth inhibition rate)	effect on crop, corn (level) ([1]; 120 g/ha): 0; effect on crop, rice (level) ([1]; 120 g/ha): 0; effect on crop, wheat (level) ([1]; 120 g/ha): 0; weed control effect, Abutilon theophrasti (level) ([2]; 120 g/ha): 6 (Level 6: above 60% growth inhibition rate); weed control effect, Bidens pilosa (level) ([2]; 120 g/ha): 6 (Level 6: above 60% growth inhibition rate); weed control effect, Digitaria sanguinalis (level) ([2]; 120 g/ha): 1 (Level 1: above 1-10% growth inhibition rate); weed control effect, Echinochloa crus-galli (level) ([2]; 120 g/ha): 9 (Level 9: above 90% growth inhibition rate); weed control effect, Rorippa indica (level) ([2]; 120 g/ha): 4 (Level 4: above 30% growth inhibition rate); weed control effect, Setaria viridis (level) ([2]; 120 g/ha): 2 (Level 2: above 10% growth inhibition rate)
COCC(C)OCc1c(S(C)(=O)=O)ccc(C(=O)c2c(C)nn(C)c2OC(=O)c2cn(C)nc2C)c1Cl (stereo not shown) [Compound 36]	–	–	–	–	–	–	–	–	–	0	9 (Level 9: above 90% growth inhibition rate)	10	10	effect on crop, corn (level) ([1]; 60 g/ha): 0; effect on crop, rice (level) ([1]; 60 g/ha): 1 (Level 1: above 1-10% growth inhibition rate); effect on crop, wheat (level) ([1]; 60 g/ha): 0; weed control effect, Abutilon theophrasti (level) ([2]; 60 g/ha): 10; weed control effect, Bidens pilosa (level) ([2]; 60 g/ha): 8 (Level 8: above 80% growth inhibition rate); weed control effect, Digitaria sanguinalis (level) ([2]; 60 g/ha): 10; weed control effect, Echinochloa crus-galli (level) ([2]; 60 g/ha): 10; weed control effect, Rorippa indica (level) ([2]; 60 g/ha): 10; weed control effect, Setaria viridis (level) ([2]; 60 g/ha): 7 (Level 7: above 70% growth inhibition rate)
